Data: PubChem BioAssay AID540271 (Broad Institute, 2011)
Calls of active or inactive are those of the source. The rule behind the calls is not given here.

tested on: S. cerevisiae expressing PfHSP40, growth rescue, plate reader; experiment: S cerevisiae expressing PfHSP40, growth rescue, cherry pick dose confirmatory, plate reader (AID 540271);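 note: yeast growth read after three days of incubation at 30 °C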

Structure (SMILES)	AC50
Cc1nnc(N=c2ssnc2Cl)o1	3.22 µM
O=C(O)c1ccccc1NS(=O)(=O)c1cccc(-n2sc3ccccc3c2=O)c1	4.78 µM
O=C(CC1CC2CCC1C2)Nc1nc(-c2ccccn2)cs1 (configuration not stated)	5.1 µM
CCOc1ccc(N/N=C(/C#N)C(N)=O)cc1	4.1 µM
C=CCc1ccc(O)c(-c2ccc(O)c(CC=C)c2)c1	4.8 µM
COc1ccc(N(C(=O)c2ccncc2)S(=O)(=O)c2ccc(F)cc2)cc1	5.25 µM
Cc1ccc(-c2nn(C(C)(C)C)c3ncnc(N)c23)cc1	1.28 µM
Cc1csc(NC(=S)Nc2cccc(Cl)c2)n1	11.2 µM
CC(C)CN=Cc1c(O)c([N+](=O)[O-])cc2oc3c(c12)CCCC3	1.33 µM
CCCCC(=O)NC(c1ccc(OC)c(OC)c1)c1ccc2cccnc2c1O (configuration not stated)	1.83 µM
Clc1ccccc1C(c1ccccc1)(c1ccccc1)n1ccnc1	0.387 µM
CC(C)=CCc1c(O)cc(O)c2c1OC(c1ccc(O)cc1)CC2=O (configuration not stated)	5.76 µM
O=C(Oc1ccc(N(C(=O)c2ccncc2)S(=O)(=O)c2ccc(Cl)cc2)cc1)c1ccncc1	5.85 µM
O=C(N/N=C/c1cc(Br)ccc1O)c1ccccc1Cl	4.83 µM
CC(CNC(=O)COc1ccccc1)OC(=O)Nc1ccc(Cl)c(Cl)c1 (configuration not stated)	6.12 µM
O=S1OC(c2ccccc2)c2cc(Cl)ccc21 (configuration not stated)	10.8 µM
O=C(Nc1nnc(-c2ccccc2)o1)c1ccc(Cl)cc1	1.84 µM
Cc1cc(NS(=O)(=O)c2ccc(C3CCCCC3)cc2)no1	5.38 µM
Cc1c(C(=O)NCCSCc2cccc(C(F)(F)F)c2)cnn1-c1ccc(Cl)cc1	6.1 µM
O=C(NOC(=O)c1ccccc1)c1ccccc1	2.11 µM
CC1(S(=O)(=O)O)CC(=O)c2ccccc2C1=O (configuration not stated)	> 12 µM (inactive)
CN(c1ccccc1)c1nc(N2CCCC2)nc(-n2ccnc2)n1	1.04 µM
CC(C)C(=O)NC(c1cccc([N+](=O)[O-])c1)c1ccc2cccnc2c1O (configuration not stated)	1.27 µM
COc1ccc(C(=O)On2c(-c3ccc(Br)cc3)nc3ccccc3c2=O)cc1	4.13 µM

Structure (SMILES)	AC50
S=C(Nc1ccc(Oc2ccccc2)cc1)NC1CCCCCC1	6.93 µM
O=C(/C(=N/N=C/c1ccc(O)c(O)c1O)c1ccccc1)c1ccccc1	6.09 µM
Cc1csc(NC(=O)C(C)Oc2ccc(Cl)cc2C)n1 (configuration not stated)	8.4 µM
CCC1=NN(C(=O)c2cccc(Br)c2)C(O)(c2ccc(Br)cc2)C1 (configuration not stated)	5.92 µM
COc1ccc(N(C)S(=O)(=O)c2ccc(Cl)c(C(=O)NNC(=O)c3ccccc3O)c2)cc1	2.52 µM
O=C(N/N=C(\c1ccccc1)c1cccnc1)c1cccc(F)c1	4.97 µM
CC(C)N1CCN(c2ccc(OCC3COC(Cn4cncn4)(c4ccc(Cl)cc4Cl)O3)cc2)CC1 (configuration not stated)	2.01 µM
O=C(NNC(=O)c1cc(Cl)ccc1O)c1ccc(NS(=O)(=O)c2cccs2)cc1	5.61 µM
O=c1c(CO)cc(CO)cc(CO)c1O	6.03 µM
O=C(Nc1cccc(-c2nc3ccccc3s2)c1)c1cccs1	5.98 µM
O=CC1=C(c2ccccc2)Oc2ccccc2O1	2.78 µM
CCCCC(CC)c1nnc(NC(=O)c2cccs2)s1 (configuration not stated)	6.66 µM
CCOC(=O)c1cnc(-n2nc(C)cc2C)nc1NC1CCCC1	7.65 µM
Cn1ccc(=Nc2ccc(NC(=O)c3ccc(N=c4ccn(C)c5ccc([N+](=O)[O-])cc45)cc3)cc2)cc1	6.48 µM
S=C(NCCCc1ccccc1)Nc1ccccc1Cl	9.44 µM
CCOc1cc([N+](=O)[O-])cc(/C=N/NC(=O)c2c(-c3ccccc3)noc2C)c1O	4.9 µM
CCC(Oc1ccccc1)C(=O)Nc1ncc([N+](=O)[O-])s1 (configuration not stated)	6.83 µM
CC(C)(c1cc(Br)c(O)c(Br)c1)c1cc(Br)c(O)c(Br)c1	8.13 µM
c1ccc(C(=NNc2nc3ccccc3s2)c2ccccn2)cc1	2.52 µM
CSc1nccc(NC(=O)c2ccc(C(C)(C)C)cc2)n1	5.08 µM
CCOC(=O)c1ccc(NC(=O)CC2C(=O)OCCN2CC)cc1 (configuration not stated)	4.66 µM
CCCCCCSc1ccc(-c2nc3ccccn3c2NCCCC)cc1	6.05 µM
O=[N+]([O-])c1ccc(S(=O)Cc2ccccc2)c([N+](=O)[O-])c1 (configuration not stated)	1.75 µM
